Here are results for four molecules from publication PMC6467267 (Chemical research in toxicology, 2019).

Read-outs that look alike come from different tables or passages of the source.

Broadly, the Km is the substrate concentration at which the rate is half of its maximum. What is called stoichiometry N is a count of units in the complex or per binding partner.

In one assay the target is TfIMPDH (Tritrichomonas foetus, UniProt P50097). Put plainly: biochemical. In kind it is biochemical.
Assay [1] addresses T1, CjIMPDH (Campylobacter jejuni, UniProt Q0P9J4). Put plainly: biochemical. In kind it is biochemical.
Assay [2] deals with T2, BaIMPDH (Bacillus anthracis, UniProt A0A6L8P2U9). Description: biochemical. In kind it is biochemical.
T2 sequence (A0A6L8P2U9 1-487): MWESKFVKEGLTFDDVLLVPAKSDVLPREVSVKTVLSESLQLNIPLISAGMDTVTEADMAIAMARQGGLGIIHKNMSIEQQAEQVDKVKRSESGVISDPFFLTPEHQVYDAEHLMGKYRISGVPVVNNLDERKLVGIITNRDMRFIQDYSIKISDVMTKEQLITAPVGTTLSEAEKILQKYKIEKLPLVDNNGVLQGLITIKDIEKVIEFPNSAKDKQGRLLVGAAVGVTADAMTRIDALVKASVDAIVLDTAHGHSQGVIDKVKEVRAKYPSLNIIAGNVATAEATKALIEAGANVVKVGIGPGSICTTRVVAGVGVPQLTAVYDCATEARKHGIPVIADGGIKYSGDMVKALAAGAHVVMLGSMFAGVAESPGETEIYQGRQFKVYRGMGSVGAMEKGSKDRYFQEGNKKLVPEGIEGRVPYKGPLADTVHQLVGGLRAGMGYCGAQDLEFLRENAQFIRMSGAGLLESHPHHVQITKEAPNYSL
A further assay deals with CpIMPDH (Cryptosporidium parvum, UniProt Q8T6T2). Description: biochemical. In kind it is biochemical.
Chain of CpIMPDH (Q8T6T2 whole entry): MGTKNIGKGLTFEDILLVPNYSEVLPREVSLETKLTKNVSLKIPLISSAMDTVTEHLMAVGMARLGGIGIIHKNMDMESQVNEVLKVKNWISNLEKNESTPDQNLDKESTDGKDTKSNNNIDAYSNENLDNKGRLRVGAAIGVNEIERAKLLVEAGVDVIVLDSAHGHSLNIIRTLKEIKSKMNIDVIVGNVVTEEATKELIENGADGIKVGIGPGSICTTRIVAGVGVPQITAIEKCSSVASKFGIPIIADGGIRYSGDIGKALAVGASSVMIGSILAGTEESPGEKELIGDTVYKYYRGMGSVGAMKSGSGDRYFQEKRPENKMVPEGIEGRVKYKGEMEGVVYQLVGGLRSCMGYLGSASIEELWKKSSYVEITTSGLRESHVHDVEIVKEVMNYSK
The target in another assay is human IMPDH2 (Homo sapiens, UniProt P12268). Put plainly: IMPDH steady-state kinetics and inhibition. It counts as biochemical.
Assay [3] deals with T2, BaIMPDH. In kind it is binding. The following applies: read-out: calculated value of Ki.
For assay [4], the target named is T2, BaIMPDH. It counts as biochemical.
Assay [5] has as its target T2, BaIMPDH. In kind it is biochemical. The source holds these as a separate data set.
Assay [6] has as its target T1, CjIMPDH. Description: Product determination and stoichiometry of inhibition. In kind it is biochemical.
Assay [7] addresses partially purified rat IMPDH. The note with it: mixed inhibition; cited from earlier work.
Assay [8] deals with CjIMPDHΔS (IMPDH from C. jejuni, CBS domain V92-T195 deleted and replaced with G) (Campylobacter jejuni) (UniProt Q0P9J4). Description: crystal structure.
Where [9] appears, read: read-out: Km, NAD, varying NAD+, saturating IMP, 25 °C, pH 8.
The mark [10] stands for this setting: uncompetitive substrate inhibition by NAD+.
The mark [11] stands for this setting: read-out: Kis, OxMP, versus IMP, competitive, NAD+ 500 μM.

Chain of TfIMPDH (P50097 whole entry): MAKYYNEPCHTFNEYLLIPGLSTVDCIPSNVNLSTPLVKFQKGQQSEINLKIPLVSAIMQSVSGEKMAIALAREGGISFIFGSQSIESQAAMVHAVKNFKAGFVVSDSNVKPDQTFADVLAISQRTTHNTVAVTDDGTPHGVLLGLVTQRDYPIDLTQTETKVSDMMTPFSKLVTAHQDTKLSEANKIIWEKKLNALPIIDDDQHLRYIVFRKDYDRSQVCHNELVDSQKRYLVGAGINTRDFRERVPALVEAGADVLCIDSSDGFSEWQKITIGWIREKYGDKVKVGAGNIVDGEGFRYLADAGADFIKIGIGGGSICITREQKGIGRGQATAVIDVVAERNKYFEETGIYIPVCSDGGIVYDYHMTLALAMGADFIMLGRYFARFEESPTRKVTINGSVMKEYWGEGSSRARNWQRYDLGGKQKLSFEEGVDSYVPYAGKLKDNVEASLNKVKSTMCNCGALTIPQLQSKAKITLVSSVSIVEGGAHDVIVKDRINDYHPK

For `Nc1nc2c(ncn2[C@@H]2O[C@H](COP(=O)(O)O)[C@@H](O)[C@H]2O)c(=O)[nH]1` [GMP, guanosine 5’-monophosphate, reference compound], the Ki turned out to be 24000 ± 2000 nM on TfIMPDH, 8000 ± 900 nM at CjIMPDH [1], 115000 ± 7000 nM on BaIMPDH [2] and 21000 ± 1000 nM at CpIMPDH.
In the case of `NC(=O)c1ccc[n+]([C@@H]2O[C@H](COP(=O)([O-])OP(=O)(O)OC[C@H]3O[C@@H](n4cnc5c(N)ncnc54)[C@H](O)[C@@H]3O)[C@@H](O)[C@H]2O)c1` [NAD], the Km came out at 80 ± 3 µM on TfIMPDH (setting [9]); 7 ± 1.7 µM on human IMPDH2 (setting [9]); 66 ± 5 µM at CjIMPDH [1] (setting [9]); 700 ± 40 µM on BaIMPDH [2] (read-out: Km, NAD, pH 8); 45 ± 3 µM on CpIMPDH (setting [9]). Further, the “Kii, NAD” value on TfIMPDH (setting [10]) came to 5.4 ± 0.3 mM; on human IMPDH2 (setting [10]), 0.49 ± 0.12 mM; at CjIMPDH [1] (setting [10]), 4.1 ± 0.3 mM; at BaIMPDH [2], 8.1 ± 0.5 mM; at CpIMPDH (setting [10]) it was 6.5 ± 0.5 mM.
Take `Nc1nc2c(ncn2[C@@H]2O[C@H](COP(=O)(O)O)[C@@H](O)[C@H]2O)c(=O)o1` [OxMP, oxanosine monophosphate]: the “Kis, GMP /Kis, OxMP” value was found to be 140 at TfIMPDH (ratio of Kis values); 280 on human IMPDH2 (ratio of Kis values); 160 on CjIMPDH [1] (ratio of Kis values); 340 at BaIMPDH [2]; 240 at CpIMPDH (ratio of Kis values). Besides, the Ki at TfIMPDH (setting [11]) is 170 ± 20 nM; at human IMPDH2 (setting [11]), 130 ± 20 nM; at BaIMPDH [3] it was 330 nM; at CjIMPDH [1] (setting [11]) it was 51 ± 6 nM; on BaIMPDH [2] (read-out: Kis, OxMP) it was 340 ± 50 nM; on CpIMPDH (setting [11]), 90 ± 10 nM. In [7], the Ki was 1000 to 5000 nM. In addition, the “hydrolysis of OxMP to UrMP by the enzyme” value at BaIMPDH [4] is “no free UrMP was detected”; at CjIMPDH [6] (enzyme and OxMP in a 1:1 ratio for 4 h, LC-MS), “no free UrMP was detected”. For the same molecule, the stoichiometry of inhibition at BaIMPDH [4] turned out to be 1 OxMP/active site; on CjIMPDH [6] (incubated 5 min, initial rates) it was 1 OxMP/active site. Further, the “dissociation rate constant koff” value at BaIMPDH [5] is 0.0019 s⁻¹.
“CjIMPDHΔS (IMPDH from C. jejuni, CBS domain V92-T195 deleted and replaced with G) (from UniProt Q0P9J4) (enzyme)” had a stoichiometry N in assay [8] of 4.
